Results from patent US12077503B2, “Substituted cyclic amides and their use as herbicides” (FMC CORPORATION, priority 2015, dated 2024).

How the values were obtained:
Assay type in all cases: in vivo
[1] = tested on: barnyardgrass (Echinochloa crus-galli); assay: Test G Post-Emergence Protocol; conditions: Echinochloa crus-galli, post-emergence, 312 h; for pest or weed control at 15.625 g/ha: 15.625 g ai/ha, evaluated after 13 days (100=total damage to plant; 0=no damage to plant), read-out: Barnyardgrass damage rating; for pest or weed control at 62.5 g/ha: 62.5 g ai/ha, read-out: Barnyardgrass damage rating (100=total damage to plant; 0=no damage to plant); for pest or weed control at 62.5 g/ha / pest or weed control at 250 g/ha: evaluated after 13 days; for pest or weed control at 250 g/ha: 250 g ai/ha, read-out: damage to plant, Barnyardgrass (100=total damage to plant; 0=no damage to plant)
How it was run: (§1)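 A glasshouse post-emergence test: 8-day-old plants sprayed at 15.625, 62.5 or 250 g/ha, then grown at 24/16 °C day/night with 14 h light and 65% humidity. Damage rated 13 days later, 0–100.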

[2] = tested on: giant foxtail (Setaria faberi); assay: Test G Post-Emergence Protocol; conditions: Setaria faberi, post-emergence, 312 h; for pest or weed control at 15.625 g/ha: 15.625 g ai/ha, evaluated after 13 days (100=total damage to plant; 0=no damage to plant), read-out: Foxtail, Giant damage rating; for pest or weed control at 62.5 g/ha: 62.5 g ai/ha, read-out: Foxtail, Giant damage rating (100=total damage to plant; 0=no damage to plant); for pest or weed control at 62.5 g/ha / pest or weed control at 250 g/ha: evaluated after 13 days; for pest or weed control at 250 g/ha: 250 g ai/ha, read-out: damage to plant, Foxtail, Giant (100=total damage to plant; 0=no damage to plant)
How it was run: as §1

[3] = tested on: redroot pigweed (Amaranthus retroflexus); assay: Test G Post-Emergence Protocol; conditions: Amaranthus retroflexus, post-emergence, 312 h; for pest or weed control at 15.625 g/ha: 15.625 g ai/ha, evaluated after 13 days (100=total damage to plant; 0=no damage to plant), read-out: Pigweed, Redroot damage rating; for pest or weed control at 62.5 g/ha: 62.5 g ai/ha, read-out: Pigweed, Redroot damage rating (100=total damage to plant; 0=no damage to plant); for pest or weed control at 62.5 g/ha / pest or weed control at 250 g/ha: evaluated after 13 days; for pest or weed control at 250 g/ha: 250 g ai/ha, read-out: damage to plant, Pigweed, Redroot (100=total damage to plant; 0=no damage to plant)
How it was run: as §1

[4] = tested on: ivy-leaved morning glory (Ipomoea hederacea); assay: Test G Post-Emergence Protocol; conditions: Ipomoea, post-emergence, 312 h; for pest or weed control at 15.625 g/ha: 15.625 g ai/ha, evaluated after 13 days (100=total damage to plant; 0=no damage to plant), read-out: Morningglory, Ivy-leaved damage rating; for pest or weed control at 62.5 g/ha: 62.5 g ai/ha, read-out: Morningglory, Ivy-leaved damage rating (100=total damage to plant; 0=no damage to plant); for pest or weed control at 62.5 g/ha / pest or weed control at 250 g/ha: evaluated after 13 days; for pest or weed control at 250 g/ha: 250 g ai/ha, read-out: damage to plant, Morningglory, Ivy-leaved (100=total damage to plant; 0=no damage to plant)
How it was run: as §1

[5] = tested on: velvetleaf (Abutilon theophrasti); assay: Test G Post-Emergence Protocol; conditions: Abutilon theophrasti, post-emergence, 312 h; for pest or weed control at 15.625 g/ha: 15.625 g ai/ha, evaluated after 13 days (100=total damage to plant; 0=no damage to plant), read-out: Velvetleaf damage rating; for pest or weed control at 62.5 g/ha: 62.5 g ai/ha, read-out: Velvetleaf damage rating (100=total damage to plant; 0=no damage to plant); for pest or weed control at 62.5 g/ha / pest or weed control at 250 g/ha: evaluated after 13 days; for pest or weed control at 250 g/ha: 250 g ai/ha, read-out: damage to plant, Velvetleaf (100=total damage to plant; 0=no damage to plant)
How it was run: as §1

corn (Zea mays) [6] = assay: Test G Post-Emergence Protocol; conditions: Zea mays, post-emergence, 312 h; for plant injury at 15.625 g/ha: 15.625 g ai/ha, evaluated after 13 days (100=total damage to plant; 0=no damage to plant), read-out: Corn damage rating; for plant injury at 62.5 g/ha: 62.5 g ai/ha, read-out: Corn damage rating (100=total damage to plant; 0=no damage to plant); for plant injury at 62.5 g/ha / plant injury at 250 g/ha: evaluated after 13 days; for plant injury at 250 g/ha: 250 g ai/ha, read-out: damage to plant, Corn (100=total damage to plant; 0=no damage to plant)
How it was run: as §1

[7] = tested on: barnyardgrass (Echinochloa crus-galli); assay: Test G Pre-Emergence Protocol; conditions: Echinochloa crus-galli, pre-emergence, 312 h, evaluated after 13 days; for pest or weed control at 15.625 g/ha: 15.625 g ai/ha, read-out: Barnyard grass damage rating (100=total damage to plant; 0=no damage to plant); for pest or weed control at 62.5 g/ha: 62.5 g ai/ha, 100=total damage to plant, 0=no damage to plant, read-out: plant damage rating, Barnyardgrass; for pest or weed control at 250 g/ha: 250 g ai/ha, read-out: Barnyardgrass damage rating (100=total damage to plant; 0=no damage to plant)
How it was run: (§2)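 Glasshouse pre-emergence test: soil-sown seeds, sprayed after 1 d at 15.625, 62.5 or 250 g/ha. Conditions 24/16° C day/night, 14 h light, 65% humidity, watering twice daily. Rating 13 d post-spray (100 = total damage).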

[8] = tested on: giant foxtail (Setaria faberi); assay: Test G Pre-Emergence Protocol; conditions: Setaria faberi, pre-emergence, 312 h, evaluated after 13 days; for pest or weed control at 15.625 g/ha: 15.625 g ai/ha; for pest or weed control at 15.625 g/ha / pest or weed control at 250 g/ha: read-out: Foxtail, Giant damage rating (100=total damage to plant; 0=no damage to plant); for pest or weed control at 62.5 g/ha: 62.5 g ai/ha, 100=total damage to plant, 0=no damage to plant, read-out: plant damage rating, Foxtail, Giant; for pest or weed control at 250 g/ha: 250 g ai/ha
How it was run: as §2

[9] = tested on: redroot pigweed (Amaranthus retroflexus); assay: Test G Pre-Emergence Protocol; conditions: Amaranthus retroflexus, pre-emergence, 312 h, evaluated after 13 days; for pest or weed control at 15.625 g/ha: 15.625 g ai/ha; for pest or weed control at 15.625 g/ha / pest or weed control at 250 g/ha: read-out: Pigweed, Redroot damage rating (100=total damage to plant; 0=no damage to plant); for pest or weed control at 62.5 g/ha: 62.5 g ai/ha, 100=total damage to plant, 0=no damage to plant, read-out: plant damage rating, Pigweed, Redroot; for pest or weed control at 250 g/ha: 250 g ai/ha
How it was run: as §2

[10] = tested on: ivy-leaved morning glory (Ipomoea hederacea); assay: Test G Pre-Emergence Protocol; conditions: Ipomoea, pre-emergence, 312 h, evaluated after 13 days; for pest or weed control at 15.625 g/ha: 15.625 g ai/ha, read-out: Morning-glory, Ivy-leaved damage rating (100=total damage to plant; 0=no damage to plant); for pest or weed control at 62.5 g/ha: 62.5 g ai/ha, 100=total damage to plant, 0=no damage to plant, read-out: plant damage rating, Morningglory, Ivy-leaved; for pest or weed control at 250 g/ha: 250 g ai/ha, read-out: Morningglory, Ivy-leaved damage rating (100=total damage to plant; 0=no damage to plant)
How it was run: as §2

[11] = tested on: velvetleaf (Abutilon theophrasti); assay: Test G Pre-Emergence Protocol; conditions: Abutilon theophrasti, pre-emergence, 312 h, evaluated after 13 days; for pest or weed control at 15.625 g/ha: 15.625 g ai/ha; for pest or weed control at 15.625 g/ha / pest or weed control at 250 g/ha: read-out: Velvetleaf damage rating (100=total damage to plant; 0=no damage to plant); for pest or weed control at 62.5 g/ha: 62.5 g ai/ha, 100=total damage to plant, 0=no damage to plant, read-out: plant damage rating, Velvetleaf; for pest or weed control at 250 g/ha: 250 g ai/ha
How it was run: as §2

corn (Zea mays) [12] = assay: Test G Pre-Emergence Protocol; conditions: Zea mays, pre-emergence, 312 h, evaluated after 13 days; for plant injury at 15.625 g/ha: 15.625 g ai/ha; for plant injury at 15.625 g/ha / plant injury at 250 g/ha: read-out: Corn damage rating (100=total damage to plant; 0=no damage to plant); for plant injury at 62.5 g/ha: 62.5 g ai/ha, 100=total damage to plant, 0=no damage to plant, read-out: plant damage rating, Corn; for plant injury at 250 g/ha: 250 g ai/ha
How it was run: as §2

| Compound | pest or weed control at 15.625 g/ha [1] | pest or weed control at 62.5 g/ha [1] | pest or weed control at 250 g/ha [1] | pest or weed control at 15.625 g/ha [2] | pest or weed control at 62.5 g/ha [2] | pest or weed control at 250 g/ha [2] | pest or weed control at 15.625 g/ha [3] | pest or weed control at 62.5 g/ha [3] | pest or weed control at 250 g/ha [3] | pest or weed control at 15.625 g/ha [4] | pest or weed control at 62.5 g/ha [4] | pest or weed control at 250 g/ha [4] | pest or weed control at 15.625 g/ha [5] | pest or weed control at 62.5 g/ha [5] | pest or weed control at 250 g/ha [5] | plant injury at 15.625 g/ha (corn (Zea mays) [6]) | plant injury at 62.5 g/ha (corn (Zea mays) [6]) | plant injury at 250 g/ha (corn (Zea mays) [6]) | pest or weed control at 15.625 g/ha [7] | pest or weed control at 62.5 g/ha [7] | other results |
| --- | --- | --- | --- | --- | --- | --- | --- | --- | --- | --- | --- | --- | --- | --- | --- | --- | --- | --- | --- | --- | --- |
| CN1C[C@@H](c2ccc(C(F)(F)F)cc2)[C@H](C(=O)Nc2ccn(C)n2)C1=O (racemic) [Compound 1615] | 0% | 0% | 0% | 0% | 0% | 0% | 0% | 0% | 0% | 0% | 0% | 0% | 0% | 0% | 0% | 0% | 0% | 0% | 0% | 0% | pest or weed control at 250 g/ha [7]: 0%; pest or weed control at 15.625 g/ha [8]: 0%; pest or weed control at 62.5 g/ha [8]: 0%; pest or weed control at 250 g/ha [8]: 0%; pest or weed control at 15.625 g/ha [9]: 0%; pest or weed control at 62.5 g/ha [9]: 0%; pest or weed control at 250 g/ha [9]: 0%; pest or weed control at 15.625 g/ha [10]: 0%; pest or weed control at 62.5 g/ha [10]: 0%; pest or weed control at 250 g/ha [10]: 0%; pest or weed control at 15.625 g/ha [11]: 0%; pest or weed control at 62.5 g/ha [11]: 0%; pest or weed control at 250 g/ha [11]: 0%; plant injury at 15.625 g/ha (corn (Zea mays) [12]): 0%; plant injury at 62.5 g/ha (corn (Zea mays) [12]): 0%; plant injury at 250 g/ha (corn (Zea mays) [12]): 0% |
| Cc1c(C#N)cccc1NC(=O)[C@H]1C(=O)N(C)C[C@@H]1c1ccc(C(F)(F)F)cc1 (racemic) [Compound 1444] | 0% | 10% | 20% | 0% | 60% | 60% | 10% | 10% | 20% | 0% | 10% | 10% | 0% | 0% | 0% | 10% | 10% | 10% | 10% | 30% | pest or weed control at 250 g/ha [7]: 60%; pest or weed control at 15.625 g/ha [8]: 50%; pest or weed control at 62.5 g/ha [8]: 80%; pest or weed control at 250 g/ha [8]: 80%; pest or weed control at 15.625 g/ha [9]: 0%; pest or weed control at 62.5 g/ha [9]: 40%; pest or weed control at 250 g/ha [9]: 50%; pest or weed control at 15.625 g/ha [10]: 10%; pest or weed control at 62.5 g/ha [10]: 0%; pest or weed control at 250 g/ha [10]: 40%; pest or weed control at 15.625 g/ha [11]: 0%; pest or weed control at 62.5 g/ha [11]: 20%; pest or weed control at 250 g/ha [11]: 20%; plant injury at 15.625 g/ha (corn (Zea mays) [12]): 0%; plant injury at 62.5 g/ha (corn (Zea mays) [12]): 0%; plant injury at 250 g/ha (corn (Zea mays) [12]): 50% |
